Results from patent US8486940B2, “Inhibitors” (Probiodrug AG, priority 2009, dated 2013).

Molecular target: hQC (Homo sapiens (Human), UniProt Q16769)
Experiment: QC inhibitor assay (fluorometric / spectrophotometric QC activity assays)
Format: biochemical
Protocol: Excitation/emission wavelengths were 320/410 nm.
This novel assay was used to determine the kinetic parameters for most of the QC substrates. […] Samples consisted of the respective QC substrate, 0.3 mM NADH, 14 mM α-Ketoglutaric acid and 30 U/ml glutamate dehydrogenase in a final volume of 250 μl. Reactions were started by addition of QC and persued by monitoring of the decrease in absorbance at 340 nm for 8-15 min.
All samples were measured at 30° C., using either the […]uor Plus or the Sunrise (both from TECAN) reader for microplates. Kinetic data was evaluated using GraFit software.
For inhibitor testing, the sample composition was the same as described above, except of the putative inhibitory compound added. For a rapid test of QC-inhibition, samples contained 4 mM of the respective inhibitor and a substrate concentration at 1 KM. For detailed investigations of the inhibition and determination of K,-values, influence of the inhibitor on the auxiliary enzymes was investigated first. […] The inhibitory constant was evaluated by fitting the set of progress curves to the general equation for competitive inhibition using GraFit software.

Sequence of hQC (Q16769 29-361): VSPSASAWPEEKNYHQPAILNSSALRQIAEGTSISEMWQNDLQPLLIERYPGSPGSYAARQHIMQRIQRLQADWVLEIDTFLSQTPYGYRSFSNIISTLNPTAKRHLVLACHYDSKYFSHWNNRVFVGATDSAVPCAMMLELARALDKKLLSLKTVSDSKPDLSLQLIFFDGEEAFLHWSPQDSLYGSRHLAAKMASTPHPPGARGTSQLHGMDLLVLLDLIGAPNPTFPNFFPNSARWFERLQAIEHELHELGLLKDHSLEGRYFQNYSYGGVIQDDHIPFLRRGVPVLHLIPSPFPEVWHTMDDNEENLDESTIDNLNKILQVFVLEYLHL

Row | Structure (SMILES) | IC50 [µM]
1 | O=C1NCC(C2CCCCC2)N1c1ccc2[nH]cnc2c1 (centres unmarked) [Example 2, 1-(1H-benzo[d]imidazol-5-yl)-5-cyclohexylimidazolidin-2-one] | < 10
2 | O=C1NCC(c2ccccc2)N1c1ccc2[nH]cnc2c1 (centres unmarked) [Example 3, 1-(1H-benzo[d]imidazol-5-yl)-5-phenylimidazolidin-2-one] | < 10
3 | COc1ccc(C2CNC(=O)N2c2ccc3[nH]cnc3c2)cc1 (centres unmarked) [Example 5, 1-(1H-benzo[d]imidazol-5-yl)-5-(4-methoxyphenyl)imidazolidin-2-one] | < 10
4 | CC(C)[C@H]1COC(=O)N1c1ccc2[nH]cnc2c1 [Example 68, (S)-3-(1H-benzo[d]imidazol-5-yl)-4-isopropyloxazolidin-2-one] | < 10
5 | COc1ccc(C2CCCN2c2ccc3[nH]cnc3c2)cc1 (centres unmarked) [Example 102, 5-(2-(4-methoxyphenyl)pyrrolidin-1-yl)-1H-benzo[d]imidazole] | < 10

Continued, values first:

Row | IC50 [µM] | Structure (SMILES)
6 | < 10 | O=C1CSC(c2ccsc2)N1c1ccc2nc[nH]c2c1 (centres unmarked) [Example 116, 3-(1H-benzo[d]imidazol-6-yl)-2-(thiophen-3-yl)thiazolidin-4-one]
7 | < 10 | S=C1CSC(c2ccccc2)N1c1ccc2[nH]cnc2c1 (centres unmarked) [Example 118, 3-(1H-benzo[d]imidazol-5-yl)-2-phenylthiazolidine-4-thione]
8 | < 10 | O=C1NCC(c2ccc(N3CCCCC3)cc2)N1c1ccc2[nH]cnc2c1 (centres unmarked) [Example 175, 1-(1H-benzo[d]imidazol-5-yl)-5-(4-(piperidin-1-yl)phenyl)imidazolidin-2-one]
